Results on eight molecules are retold here after patent US20250205344A1, “2,4-DIOXOTETRAHYDROPYRIMIDINYL DERATIVES AS DEGRONS IN PROTACS” (GLAXOSMITHKLINE INTELLECTUAL PROPERTY DEVELOPMENT LIMITED, priority 2022, published 2025).

Counter-ions that a name gives are not always drawn.

The target in the experiment is T1, Androgen Receptor (Homo sapiens, UniProt P10275, T878A).
T1 construct: the AR gene was modified, using CRISPR/Cas9 editing, so the expressed AR protein included an 11 amino acid HiBiT tag; endogenous in cells; host or cells: clonal LnCaP-derived line, AR gene edited by CRISPR/Cas9
T1 sequence (P10275 whole entry T878A): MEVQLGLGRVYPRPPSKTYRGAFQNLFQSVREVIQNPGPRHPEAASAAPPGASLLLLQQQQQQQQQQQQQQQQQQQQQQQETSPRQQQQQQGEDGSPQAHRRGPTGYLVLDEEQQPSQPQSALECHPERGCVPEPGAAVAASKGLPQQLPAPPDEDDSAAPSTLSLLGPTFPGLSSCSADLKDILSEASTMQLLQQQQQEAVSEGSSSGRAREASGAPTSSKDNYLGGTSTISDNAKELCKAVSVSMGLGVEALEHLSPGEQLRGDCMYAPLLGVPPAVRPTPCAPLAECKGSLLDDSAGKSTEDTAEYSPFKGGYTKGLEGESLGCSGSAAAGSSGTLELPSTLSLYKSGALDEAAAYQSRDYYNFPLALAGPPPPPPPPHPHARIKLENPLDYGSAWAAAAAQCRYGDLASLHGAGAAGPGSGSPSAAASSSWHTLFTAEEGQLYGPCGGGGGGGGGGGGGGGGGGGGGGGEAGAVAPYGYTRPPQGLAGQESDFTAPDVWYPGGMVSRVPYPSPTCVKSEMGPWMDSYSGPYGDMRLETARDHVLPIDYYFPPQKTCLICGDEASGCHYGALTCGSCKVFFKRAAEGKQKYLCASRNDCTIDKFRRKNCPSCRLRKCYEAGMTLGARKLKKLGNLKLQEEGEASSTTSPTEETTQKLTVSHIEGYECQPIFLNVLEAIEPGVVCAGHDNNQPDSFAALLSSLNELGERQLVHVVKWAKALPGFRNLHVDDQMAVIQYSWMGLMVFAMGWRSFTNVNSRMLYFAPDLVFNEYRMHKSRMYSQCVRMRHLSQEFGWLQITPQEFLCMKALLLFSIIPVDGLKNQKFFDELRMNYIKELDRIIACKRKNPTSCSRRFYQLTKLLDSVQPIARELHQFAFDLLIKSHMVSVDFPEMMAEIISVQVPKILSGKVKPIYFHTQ
T1 sequence (Q96SW2 whole entry partner): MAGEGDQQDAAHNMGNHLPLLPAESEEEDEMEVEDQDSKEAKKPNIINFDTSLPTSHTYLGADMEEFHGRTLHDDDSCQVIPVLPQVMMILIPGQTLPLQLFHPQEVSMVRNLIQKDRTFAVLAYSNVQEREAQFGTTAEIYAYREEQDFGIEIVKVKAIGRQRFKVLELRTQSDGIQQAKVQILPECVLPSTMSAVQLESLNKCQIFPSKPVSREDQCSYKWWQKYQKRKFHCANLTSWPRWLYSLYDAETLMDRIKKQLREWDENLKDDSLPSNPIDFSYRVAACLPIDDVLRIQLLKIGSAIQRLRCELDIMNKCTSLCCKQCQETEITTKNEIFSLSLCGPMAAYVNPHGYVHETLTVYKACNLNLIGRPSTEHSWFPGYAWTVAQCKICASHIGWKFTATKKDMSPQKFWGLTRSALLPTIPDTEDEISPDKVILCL
T1 sequence (Q16531 whole entry partner): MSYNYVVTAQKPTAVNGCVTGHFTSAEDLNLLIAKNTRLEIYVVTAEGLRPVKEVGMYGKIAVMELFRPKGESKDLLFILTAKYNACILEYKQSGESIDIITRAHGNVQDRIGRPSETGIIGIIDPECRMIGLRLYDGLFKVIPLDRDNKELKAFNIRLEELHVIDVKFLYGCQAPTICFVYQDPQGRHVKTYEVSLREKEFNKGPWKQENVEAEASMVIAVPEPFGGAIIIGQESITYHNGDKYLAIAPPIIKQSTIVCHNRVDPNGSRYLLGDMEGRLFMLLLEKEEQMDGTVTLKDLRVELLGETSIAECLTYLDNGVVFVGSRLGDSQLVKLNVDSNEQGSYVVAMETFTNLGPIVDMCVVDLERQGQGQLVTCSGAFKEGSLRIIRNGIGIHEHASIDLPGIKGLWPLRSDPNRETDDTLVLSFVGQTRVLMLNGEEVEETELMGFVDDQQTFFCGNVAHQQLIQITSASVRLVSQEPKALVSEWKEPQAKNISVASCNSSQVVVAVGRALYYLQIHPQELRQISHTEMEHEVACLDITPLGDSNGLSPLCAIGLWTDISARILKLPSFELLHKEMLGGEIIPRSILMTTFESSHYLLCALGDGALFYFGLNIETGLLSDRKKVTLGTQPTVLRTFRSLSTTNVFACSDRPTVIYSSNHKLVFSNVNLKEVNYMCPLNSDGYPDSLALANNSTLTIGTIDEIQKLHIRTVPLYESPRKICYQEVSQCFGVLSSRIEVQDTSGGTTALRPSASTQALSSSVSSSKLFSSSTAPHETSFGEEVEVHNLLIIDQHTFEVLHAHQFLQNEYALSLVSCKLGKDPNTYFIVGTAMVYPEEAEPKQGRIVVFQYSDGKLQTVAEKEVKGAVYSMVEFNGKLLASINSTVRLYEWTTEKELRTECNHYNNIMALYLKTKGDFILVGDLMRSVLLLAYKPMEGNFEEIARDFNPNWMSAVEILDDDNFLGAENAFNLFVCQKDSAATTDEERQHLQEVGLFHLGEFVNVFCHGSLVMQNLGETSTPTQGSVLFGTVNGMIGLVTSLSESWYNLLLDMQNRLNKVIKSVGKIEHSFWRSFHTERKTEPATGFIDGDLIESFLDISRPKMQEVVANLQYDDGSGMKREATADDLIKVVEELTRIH
Put plainly: Androgen Receptor Degradation Assay (Nano-Glo HiBiT). The note with it: LNCaP, 18 h, HiBiT-tagged AR in human LnCaP cells, read-out: mean asymptote max. The class given is cell-based. The method in brief: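 LnCaP cells with CRISPR-knocked-in N-terminal HiBiT-tagged AR (10,000/well) treated 18 h at 37 °C with PROTACs over 11 threefold concentrations; lytic HiBiT luminescence normalised to DMSO (0%) and cell-free (100%) controls. Relative DC50 = 4-parameter fit inflection; absolute DC50 = 50% degradation interpolation; Dmax = maximum observed degradation.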
A general note: HiBiT is a short tag that completes a luciferase, so light tracks the accessible tagged protein.
For the molecule `N#Cc1ccc(O[C@H]2CC[C@H](NC(=O)c3ccc(N4CCC(CN5CCC(n6ccc7c(-n8ccc(=O)[nH]c8=O)cccc76)CC5)CC4)nn3)CC2)cc1Cl` [EAR141, N-((1r,4r)-4-(3-Chloro-4-cyanophenoxy)cyclohexyl)-6-(4-((4-(4-(2,4-dioxo-3,4-dihydropyrimidin-1(2H)-yl)-1H-indol-1-yl)piperidin-1-yl)methyl)piperidin-1-yl)pyridazine-3-carboxamide, hydrochloride], the Dmax is at least 50%.

Turning to `N#Cc1ccc(O[C@H]2CC[C@H](NC(=O)c3ccc(N4CCC(CN5CC(n6ccc7c(N8CCC(=O)NC8=O)cccc76)C5)CC4)nn3)CC2)cc1Cl` [EAR131, N-((1r,4r)-4-(3-chloro-4-cyanophenoxy)cyclohexyl)-6-(4-((3-(4-(2,4-dioxotetrahydropyrimidin-1(2H)-yl)-1H-indol-1-yl)azetidin-1-yl)methyl)piperidin-1-yl)pyridazine-3-carboxamide], the Dmax was at least 50%. The same measure for `CC1(C)C(=O)N(c2ccc(C#N)c(C(F)(F)F)c2)C(=S)N1c1ccc(N2CCC(CN3CCC(n4ccc5c(N6CCC(=O)NC6=O)cncc54)CC3)CC2)cc1` [EAR101, 4-(3-(4-(4-((4-(4-(2,4-Dioxotetrahydropyrimidin-1(2H)-yl)-1H-pyrrolo[2,3-c]pyridin-1-yl)piperidin-1-yl)methyl)piperidin-1-yl)phenyl)-4,4-dimethyl-5-oxo-2-thioxoimidazolidin-1-yl)-2-(trifluoromethyl)benzonitrile]: at least 50%; for `CC1(C)[C@H](NC(=O)c2cnc(N3CCC(CN4CCC(n5ccc6c(N7CCC(=O)NC7=O)cccc65)CC4)CC3)cn2)C(C)(C)[C@H]1Oc1ccc(C#N)c(Cl)c1` [AR8, N-((1r,3r)-3-(3-Chloro-4-cyanophenoxy)-2,2,4,4-tetramethylcyclobutyl)-5-(4-((4-(4-(2,4-dioxotetrahydropyrimidin-1(2H)-yl)-1H-indol-1-yl)piperidin-1-yl)methyl)piperidin-1-yl)pyrazine-2-carboxamide]: at least 50%; for `C[C@@H]1CN(c2ccc(C#N)c(Cl)c2)[C@@H](C)CN1C(=O)c1cnc(N2CCC(CN3CCC(n4ncc5c(N6CCC(=O)NC6=O)cncc54)CC3)CC2)cn1` [EAR150, 2-Chloro-4-((2S,5R)-4-(5-(4-((4-(4-(2,4-dioxotetrahydropyrimidin-1(2H)-yl)-1H-pyrazolo[3,4-c]pyridin-1-yl)piperidin-1-yl)methyl)piperidin-1-yl)pyrazine-2-carbonyl)-2,5-dimethylpiperazin-1-yl)benzonitrile]: at least 50%. Consider `CC1(C)[C@H](NC(=O)c2ccc(N3CCC(CN4CCC(n5ccc6c(N7CCC(=O)NC7=O)cccc65)CC4)CC3)nn2)C(C)(C)[C@H]1Oc1ccc(C#N)c(Cl)c1` [EAR55, N-((1r,3r)-3-(3-Chloro-4-cyanophenoxy)-2,2,4,4-tetramethylcyclobutyl)-6-(4-((4-(4-(2,4-dioxotetrahydropyrimidin-1(2H)-yl)-1H-indol-1-yl)piperidin-1-yl)methyl)piperidin-1-yl)pyridazine-3-carboxamide], for which the Dmax was at least 50%. `N#Cc1ccc(O[C@H]2CC[C@H](NC(=O)c3ccc(N4CCC(CN5CCC(n6ncc7c(N8CCC(=O)NC8=O)cc(Cl)cc76)CC5)CC4)nn3)CC2)cc1Cl` [EAR34, 6-(4-((4-(6-Chloro-4-(2,4-dioxotetrahydropyrimidin-1(2H)-yl)-1H-indazol-1-yl)piperidin-1-yl)methyl)piperidin-1-yl)-N-((1r,4r)-4-(3-chloro-4-cyanophenoxy)cyclohexyl)pyridazine-3-carboxamide hydrochloride]: the Dmax is at least 50%.

With `CC1(C)[C@H](NC(=O)c2ncc(N3CCC(CN4CCC(n5ncc6c(N7CCC(=O)NC7=O)ccnc65)CC4)CC3)cn2)C(C)(C)[C@H]1Oc1ccc(C#N)c(Cl)c1` [EAR272, N-((1r,3r)-3-(3-Chloro-4-cyanophenoxy)-2,2,4,4-tetramethylcyclobutyl)-5-(4-((4-(4-(2,4-dioxotetrahydropyrimidin-1(2H)-yl)-1H-pyrazolo[3,4-b]pyridin-1-yl)piperidin-1-yl)methyl)piperidin-1-yl)pyrimidine-2-carboxamide], the Dmax is at least 50%.
